In PMC5869712 (Scientific Reports, 2018):

What was measured:
GSK3β = target: T1, GSK3β (Homo sapiens, UniProt P49841); test: Eurofins Kinase Profiler panel; type: biochemical; details: read-out: % inhibition (1μM), DMSO control=100%, lower=stronger
T1 construct: purchased Eurofins KinaseProfiler (Eurofins Pharma Discovery Services UK, Dundee); JAK3 also ChemPartner

ALK = target: T2, ALK (Homo sapiens, UniProt Q9UM73); test: Eurofins Kinase Profiler panel; type: biochemical; details: read-out: % inhibition (1μM), DMSO control=100%, lower=stronger
T2 construct: purchased Eurofins KinaseProfiler (Eurofins Pharma Discovery Services UK, Dundee); JAK3 also ChemPartner

Lyn = target: T3, Lyn (Homo sapiens, UniProt P07948); test: Eurofins Kinase Profiler panel; type: biochemical; details: read-out: % inhibition (1μM), DMSO control=100%, lower=stronger
T3 construct: purchased Eurofins KinaseProfiler (Eurofins Pharma Discovery Services UK, Dundee); JAK3 also ChemPartner

BALB/c mice = test: Acute oral toxicity and haematology analysis in BALB/c mice; details: for HCT / HGB / LY / MCH / MCHC / MCV / MO / PLT / RBC / WBC: Balb/c mice
[1] = test system: IFN-α2b-induced JAK/STAT1 phosphorylation in U2OS cells (JAK1); test: STAT1 phosphorylation induced by IFN-α2b in U2OS cells, Western blot
ACK1 = target: T4, ACK1 (Homo sapiens, UniProt Q07912); test: Eurofins Kinase Profiler panel; type: biochemical; details: read-out: % inhibition (1μM), DMSO control=100%, lower=stronger
T4 construct: purchased Eurofins KinaseProfiler (Eurofins Pharma Discovery Services UK, Dundee); JAK3 also ChemPartner

SD rats = test: Acute toxicity in SD rats, oral; details: SD rats; oral 0.4 g/kg to 2.0 g/kg
[2] = Acute toxicity in SD rats, oral; details: Sprague Dawley, rat, in vivo, po
JNK2α2 = target: T5, JNK2α2 (Homo sapiens, UniProt P45984); test: Eurofins Kinase Profiler panel; type: biochemical; details: read-out: % inhibition (1μM), DMSO control=100%, lower=stronger
T5 construct: purchased Eurofins KinaseProfiler (Eurofins Pharma Discovery Services UK, Dundee); JAK3 also ChemPartner

FGFR1 = target: T6, FGFR1 (Homo sapiens, UniProt P11362); test: Eurofins Kinase Profiler panel; type: biochemical; details: read-out: % inhibition (1μM), DMSO control=100%, lower=stronger
T6 construct: purchased Eurofins Pharma Discovery Services UK Limited (Kinase Profiler screening platform)

Fms = target: T7, Fms (Homo sapiens, UniProt P07333); test: Eurofins Kinase Profiler panel; type: biochemical; details: read-out: % inhibition (1μM), DMSO control=100%, lower=stronger
T7 construct: purchased Eurofins Pharma Discovery Services UK Limited (Kinase Profiler screening platform)

MAPKAP-K2 = target: T8, MAPKAP-K2 (Homo sapiens, UniProt P49137); test: Eurofins Kinase Profiler panel; type: biochemical; details: read-out: % inhibition (1μM), DMSO control=100%, lower=stronger
T8 construct: purchased Eurofins KinaseProfiler (Eurofins Pharma Discovery Services UK, Dundee); JAK3 also ChemPartner

JAK3 = target: T9, JAK3 (Homo sapiens, UniProt P52333); test: Reversibility assay (jump dilution); type: biochemical; details: jump dilution experiment
T9 construct: ChemPartner (contract assay service)
T9 sequence (P52333 1-1124): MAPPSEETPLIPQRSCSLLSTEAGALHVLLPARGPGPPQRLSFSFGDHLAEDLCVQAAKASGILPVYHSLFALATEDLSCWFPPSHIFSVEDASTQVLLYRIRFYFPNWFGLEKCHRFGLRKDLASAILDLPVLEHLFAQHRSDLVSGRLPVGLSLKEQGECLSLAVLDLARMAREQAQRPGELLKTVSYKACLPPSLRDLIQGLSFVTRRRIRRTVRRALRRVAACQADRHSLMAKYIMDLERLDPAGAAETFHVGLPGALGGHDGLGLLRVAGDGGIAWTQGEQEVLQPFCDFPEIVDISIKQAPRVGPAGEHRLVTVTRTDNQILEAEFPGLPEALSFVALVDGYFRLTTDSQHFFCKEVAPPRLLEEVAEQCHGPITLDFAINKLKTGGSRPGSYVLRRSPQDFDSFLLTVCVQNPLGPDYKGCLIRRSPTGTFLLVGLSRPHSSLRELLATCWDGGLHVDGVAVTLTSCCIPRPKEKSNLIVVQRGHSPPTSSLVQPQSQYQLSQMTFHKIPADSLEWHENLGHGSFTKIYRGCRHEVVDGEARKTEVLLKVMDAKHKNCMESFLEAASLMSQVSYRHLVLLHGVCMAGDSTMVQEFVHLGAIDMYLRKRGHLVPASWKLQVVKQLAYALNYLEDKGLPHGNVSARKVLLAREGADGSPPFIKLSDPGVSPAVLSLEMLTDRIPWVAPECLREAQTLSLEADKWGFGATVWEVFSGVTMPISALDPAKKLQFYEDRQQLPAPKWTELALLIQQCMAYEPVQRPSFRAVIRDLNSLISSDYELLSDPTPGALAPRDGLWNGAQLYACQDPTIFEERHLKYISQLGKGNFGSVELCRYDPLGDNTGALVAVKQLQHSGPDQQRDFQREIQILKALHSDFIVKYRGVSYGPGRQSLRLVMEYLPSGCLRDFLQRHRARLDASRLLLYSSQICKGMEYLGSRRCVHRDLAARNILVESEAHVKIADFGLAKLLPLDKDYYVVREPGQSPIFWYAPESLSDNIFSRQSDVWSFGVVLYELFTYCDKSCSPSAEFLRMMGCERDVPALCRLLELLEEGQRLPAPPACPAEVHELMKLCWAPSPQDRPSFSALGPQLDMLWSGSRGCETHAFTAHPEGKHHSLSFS
Description: This test trial of our compound RB1 was performed on a ChemPartner reversibility assay platform (ChemPartner; Shanghai; China). Jump dilution analysis is commonly used. The compound was tested in duplicate under 2 conditions, preincubation with enzyme and no preincubation. The assay protocol guide is commercially available from ChemPartner.
Supplementary Figure S5. […] RB1 with […]
with kinase buffer that contains peptide substrate, ATP and cofactors at the final concentration for reaction, and read conversion data for 20 times for 1 h on caliper.
(1 picture or pasted object on this page, not shown here)

Aurora-B = target: T10, Aurora-B (Homo sapiens, UniProt Q96GD4); test: Eurofins Kinase Profiler panel; type: biochemical
T10 construct: Eurofins Pharma Discovery Services UK Limited (Kinase Profiler service)

Flt3 = target: T11, Flt3 (Homo sapiens, UniProt P36888); test: Eurofins Kinase Profiler panel; type: biochemical; details: read-out: % inhibition (1μM), DMSO control=100%, lower=stronger
T11 construct: purchased Eurofins Pharma Discovery Services UK Limited (Kinase Profiler screening platform)
T11 sequence (P36888 27-993): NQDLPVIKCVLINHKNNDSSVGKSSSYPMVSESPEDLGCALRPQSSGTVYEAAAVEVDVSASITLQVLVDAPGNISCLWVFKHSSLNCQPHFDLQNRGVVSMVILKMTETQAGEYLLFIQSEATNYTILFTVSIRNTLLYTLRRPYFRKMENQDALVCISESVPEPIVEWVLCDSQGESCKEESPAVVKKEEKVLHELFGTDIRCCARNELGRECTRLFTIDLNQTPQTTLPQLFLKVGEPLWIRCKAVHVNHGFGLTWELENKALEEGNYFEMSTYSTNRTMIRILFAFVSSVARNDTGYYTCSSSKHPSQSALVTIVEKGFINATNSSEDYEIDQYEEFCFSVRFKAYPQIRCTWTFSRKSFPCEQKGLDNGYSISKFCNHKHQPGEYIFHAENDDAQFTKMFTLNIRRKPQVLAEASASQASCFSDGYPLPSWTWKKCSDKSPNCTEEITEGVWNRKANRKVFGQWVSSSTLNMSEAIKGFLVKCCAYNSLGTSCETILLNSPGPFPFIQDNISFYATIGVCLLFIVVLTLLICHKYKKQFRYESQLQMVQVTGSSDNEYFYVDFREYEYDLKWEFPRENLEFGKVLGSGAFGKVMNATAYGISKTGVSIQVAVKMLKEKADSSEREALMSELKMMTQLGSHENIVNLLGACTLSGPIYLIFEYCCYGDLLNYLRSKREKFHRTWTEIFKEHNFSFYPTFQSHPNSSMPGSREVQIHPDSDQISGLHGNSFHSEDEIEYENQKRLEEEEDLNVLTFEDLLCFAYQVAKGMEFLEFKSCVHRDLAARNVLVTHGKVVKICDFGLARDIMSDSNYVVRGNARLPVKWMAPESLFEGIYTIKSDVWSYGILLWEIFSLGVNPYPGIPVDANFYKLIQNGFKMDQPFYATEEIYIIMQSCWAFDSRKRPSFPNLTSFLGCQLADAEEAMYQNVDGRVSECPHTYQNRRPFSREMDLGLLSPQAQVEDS

T10 sequence (Q96GD4 whole entry): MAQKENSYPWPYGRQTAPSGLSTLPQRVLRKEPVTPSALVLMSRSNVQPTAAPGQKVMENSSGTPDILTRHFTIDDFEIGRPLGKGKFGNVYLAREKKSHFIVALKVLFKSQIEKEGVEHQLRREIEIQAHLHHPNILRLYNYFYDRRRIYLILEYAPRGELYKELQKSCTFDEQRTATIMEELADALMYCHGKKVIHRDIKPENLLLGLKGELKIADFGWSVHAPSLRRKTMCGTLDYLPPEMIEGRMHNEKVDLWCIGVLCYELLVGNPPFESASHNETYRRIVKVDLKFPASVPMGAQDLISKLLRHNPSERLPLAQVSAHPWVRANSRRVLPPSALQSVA
T7 sequence (P07333 20-972): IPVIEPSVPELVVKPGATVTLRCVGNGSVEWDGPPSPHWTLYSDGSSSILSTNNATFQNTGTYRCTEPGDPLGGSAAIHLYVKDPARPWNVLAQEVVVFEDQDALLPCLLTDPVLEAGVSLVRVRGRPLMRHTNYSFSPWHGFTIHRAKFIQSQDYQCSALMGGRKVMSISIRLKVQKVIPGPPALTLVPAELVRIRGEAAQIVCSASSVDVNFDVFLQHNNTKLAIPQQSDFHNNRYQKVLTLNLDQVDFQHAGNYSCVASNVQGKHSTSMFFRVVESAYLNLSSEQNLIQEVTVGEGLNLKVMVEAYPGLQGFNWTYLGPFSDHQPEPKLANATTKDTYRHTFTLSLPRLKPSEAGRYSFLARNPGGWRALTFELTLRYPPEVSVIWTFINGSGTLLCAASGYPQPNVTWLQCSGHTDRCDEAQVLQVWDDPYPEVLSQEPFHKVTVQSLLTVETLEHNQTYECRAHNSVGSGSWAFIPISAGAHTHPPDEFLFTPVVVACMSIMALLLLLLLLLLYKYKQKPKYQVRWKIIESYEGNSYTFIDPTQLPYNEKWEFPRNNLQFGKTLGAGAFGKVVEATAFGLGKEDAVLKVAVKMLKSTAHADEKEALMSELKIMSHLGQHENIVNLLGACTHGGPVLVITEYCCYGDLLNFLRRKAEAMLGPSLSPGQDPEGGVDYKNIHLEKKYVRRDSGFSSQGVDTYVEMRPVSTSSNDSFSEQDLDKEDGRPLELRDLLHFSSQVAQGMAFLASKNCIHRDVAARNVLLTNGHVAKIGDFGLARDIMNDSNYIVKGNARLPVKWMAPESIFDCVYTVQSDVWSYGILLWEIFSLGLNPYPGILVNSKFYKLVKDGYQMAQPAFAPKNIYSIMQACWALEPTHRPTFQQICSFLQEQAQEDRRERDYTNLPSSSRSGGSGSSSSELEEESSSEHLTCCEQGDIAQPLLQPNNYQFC
T5 sequence (P45984 whole entry): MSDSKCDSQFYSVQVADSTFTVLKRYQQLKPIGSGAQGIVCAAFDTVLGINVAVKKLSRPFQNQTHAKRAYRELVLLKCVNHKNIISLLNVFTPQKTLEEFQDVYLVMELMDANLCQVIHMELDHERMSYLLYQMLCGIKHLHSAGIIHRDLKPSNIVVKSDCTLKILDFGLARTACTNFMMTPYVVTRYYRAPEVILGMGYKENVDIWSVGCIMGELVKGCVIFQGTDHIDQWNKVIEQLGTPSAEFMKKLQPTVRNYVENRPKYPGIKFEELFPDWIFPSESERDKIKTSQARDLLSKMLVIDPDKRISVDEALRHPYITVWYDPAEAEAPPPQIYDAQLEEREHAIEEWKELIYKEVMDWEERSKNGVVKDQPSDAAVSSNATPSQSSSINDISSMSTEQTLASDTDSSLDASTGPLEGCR
T4 sequence (Q07912 whole entry): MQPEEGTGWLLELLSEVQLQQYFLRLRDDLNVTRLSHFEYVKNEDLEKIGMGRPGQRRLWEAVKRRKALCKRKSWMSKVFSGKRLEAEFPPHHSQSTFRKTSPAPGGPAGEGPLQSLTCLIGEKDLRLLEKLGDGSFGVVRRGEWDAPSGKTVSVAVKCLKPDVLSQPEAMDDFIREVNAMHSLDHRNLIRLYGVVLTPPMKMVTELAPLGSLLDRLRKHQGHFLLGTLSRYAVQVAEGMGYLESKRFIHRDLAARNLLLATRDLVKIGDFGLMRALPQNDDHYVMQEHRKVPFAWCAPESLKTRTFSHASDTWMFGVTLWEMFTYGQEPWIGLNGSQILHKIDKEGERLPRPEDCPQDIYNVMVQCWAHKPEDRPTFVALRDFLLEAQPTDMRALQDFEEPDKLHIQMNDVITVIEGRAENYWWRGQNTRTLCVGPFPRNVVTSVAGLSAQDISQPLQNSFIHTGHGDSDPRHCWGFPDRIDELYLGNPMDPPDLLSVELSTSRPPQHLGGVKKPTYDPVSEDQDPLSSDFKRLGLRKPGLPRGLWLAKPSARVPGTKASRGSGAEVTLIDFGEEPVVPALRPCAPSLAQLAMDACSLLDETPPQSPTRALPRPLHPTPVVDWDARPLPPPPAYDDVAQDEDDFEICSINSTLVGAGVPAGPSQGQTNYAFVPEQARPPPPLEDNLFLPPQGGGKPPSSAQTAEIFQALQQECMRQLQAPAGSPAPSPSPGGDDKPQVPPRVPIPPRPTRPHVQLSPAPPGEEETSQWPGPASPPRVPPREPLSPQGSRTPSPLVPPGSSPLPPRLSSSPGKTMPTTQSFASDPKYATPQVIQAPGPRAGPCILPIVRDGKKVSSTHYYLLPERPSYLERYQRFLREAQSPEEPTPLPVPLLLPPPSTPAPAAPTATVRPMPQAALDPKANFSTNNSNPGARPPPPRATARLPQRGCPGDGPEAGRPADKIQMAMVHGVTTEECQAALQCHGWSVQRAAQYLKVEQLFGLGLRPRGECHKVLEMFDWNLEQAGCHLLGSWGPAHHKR
T3 sequence (P07948 whole entry): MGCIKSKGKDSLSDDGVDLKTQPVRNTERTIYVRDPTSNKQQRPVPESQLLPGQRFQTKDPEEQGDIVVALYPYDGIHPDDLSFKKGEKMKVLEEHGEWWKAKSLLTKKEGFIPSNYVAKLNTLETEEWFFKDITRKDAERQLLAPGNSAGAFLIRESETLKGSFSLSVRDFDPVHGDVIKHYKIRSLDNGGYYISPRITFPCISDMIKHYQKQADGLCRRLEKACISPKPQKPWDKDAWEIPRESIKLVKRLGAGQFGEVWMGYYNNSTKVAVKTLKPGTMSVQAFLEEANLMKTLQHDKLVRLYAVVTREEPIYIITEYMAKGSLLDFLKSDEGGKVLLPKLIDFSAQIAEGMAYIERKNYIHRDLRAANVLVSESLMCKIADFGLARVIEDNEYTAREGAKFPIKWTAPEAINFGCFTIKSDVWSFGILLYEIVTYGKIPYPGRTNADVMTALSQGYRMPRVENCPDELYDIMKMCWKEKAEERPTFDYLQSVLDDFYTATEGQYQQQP
T6 sequence (P11362 22-822): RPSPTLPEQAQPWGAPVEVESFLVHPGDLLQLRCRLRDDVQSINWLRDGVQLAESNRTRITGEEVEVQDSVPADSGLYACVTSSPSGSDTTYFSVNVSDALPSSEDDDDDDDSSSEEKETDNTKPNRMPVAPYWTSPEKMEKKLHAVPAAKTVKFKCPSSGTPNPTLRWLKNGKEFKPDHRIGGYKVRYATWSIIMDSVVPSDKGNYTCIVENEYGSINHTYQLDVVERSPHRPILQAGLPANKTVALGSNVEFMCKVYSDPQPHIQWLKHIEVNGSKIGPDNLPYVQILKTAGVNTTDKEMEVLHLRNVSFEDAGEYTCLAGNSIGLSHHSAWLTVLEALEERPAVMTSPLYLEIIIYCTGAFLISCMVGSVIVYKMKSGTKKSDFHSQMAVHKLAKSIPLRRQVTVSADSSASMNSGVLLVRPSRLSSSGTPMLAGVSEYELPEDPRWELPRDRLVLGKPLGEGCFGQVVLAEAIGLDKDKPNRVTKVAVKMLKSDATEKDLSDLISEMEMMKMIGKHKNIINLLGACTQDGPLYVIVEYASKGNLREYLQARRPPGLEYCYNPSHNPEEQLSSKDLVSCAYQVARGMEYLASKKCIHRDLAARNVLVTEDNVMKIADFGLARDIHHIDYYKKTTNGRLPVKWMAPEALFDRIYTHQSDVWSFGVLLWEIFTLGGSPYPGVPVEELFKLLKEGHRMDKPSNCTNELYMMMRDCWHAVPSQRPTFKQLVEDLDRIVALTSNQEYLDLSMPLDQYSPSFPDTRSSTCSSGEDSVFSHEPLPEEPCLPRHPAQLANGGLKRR

## C=CC(=O)N[C@@H]1CCCN(c2ncnc3[nH]ccc23)C1 [RB1]
GSK3β
  activity at 1 µM: 114%
ALK
  activity at 1 µM: 100%
Lyn
  activity at 1 µM: 118%
BALB/c mice; BALB/c mice, oral, even at 1000 mg/kg, after 14 days
  acute haematological toxicity in WBC and lymphocyte counts: did not induce significant acute haematological toxicity
BALB/c mice; BALB/c mice, single doses, 14-days recovery time
  acute oral toxicity, adverse effects: no obvious adverse results
BALB/c mice; oral 100 mg/kg
  HCT: 46.94 ± 1.80%
  HGB: 168.12 ± 7.36 g/L
  LY: 65.93 ± 3.09%
  MCH: 16.13 ± 0.12 pg
  MCHC: 369.77 ± 2.01 g/L
  MCV: 48.98 ± 0.22 fL
  MO: 6.99 ± 1.26%
  PLT: 385.34 ± 43.61 1×109/L
  RBC: 9.20 ± 0.31 1×1012/L
  WBC: 9.12 ± 0.98 1×109/L
BALB/c mice; oral 300 mg/kg
  HCT: 44.82 ± 1.77%
  HGB: 158.49 ± 6.40 g/L
  LY: 75.04 ± 3.17%
  MCH: 15.98 ± 0.22 pg
  MCHC: 360.54 ± 3.84 g/L
  MCV: 50.03 ± 0.08 fL
  MO: 6.50 ± 0.86%
  PLT: 360.12 ± 33.74 1×109/L
  RBC: 9.90 ± 0.22 1×1012/L
  WBC: 8.64 ± 1.05 1×109/L
BALB/c mice; oral 1000 mg/kg
  HCT: 43.53 ± 1.68%
  HGB: 150.33 ± 6.94 g/L
  LY: 69.43 ± 1.88%
  MCH: 16.08 ± 0.09 pg
  MCHC: 355.00 ± 2.16 g/L
  MCV: 49.82 ± 0.12 fL
  MO: 8.23 ± 1.08%
  PLT: 327.67 ± 46.45 1×109/L
  RBC: 10.44 ± 0.16 1×1012/L
  WBC: 9.33 ± 1.12 1×109/L
[1]; Homo sapiens, read-out: IC50, STAT and JAK phosphorylation
  IC50: > 50 µM
[1]; IFN-α2B, pSTAT1
  Selectivity JAK1/JAK3: > 1000
ACK1
  activity at 1 µM: 34%
SD rats
  adverse effects on body weight, behaviour or appetite: no observable adverse effects
[2]
  LD50: > 2000 mg/kg
JNK2α2
  activity at 1 µM: 109%
FGFR1
  activity at 1 µM: 80%
Fms
  activity at 1 µM: 90%
MAPKAP-K2
  activity at 1 µM: 97%
JAK3
  active JAK3 over time after preincubation: no active JAK3 was detected
Aurora-B; estimated
  IC50: > 0.8 µM
Aurora-B; read-out: % inhibition (1μM), 1 µM, DMSO control=100%, lower=stronger
  activity at 1 µM: 12%
Flt3
  activity at 1 µM: 75%
